Earlier results in publication PMC2751796 (Pharmacology & therapeutics, 2009).

Legend:
P-gp [1] = conditions: cited from earlier work
P-gp [2] = conditions: read-out: Reported EC50; ref Ekins et al., 2002; Rautio et al., 2006; cited from earlier work
P-gp [3] = molecular target: P-gp (Rattus norvegicus, UniProt Q6PSM0); conditions: cited from earlier work; for Increase in brain-to-plasma AUC ratio with elacridar: studies in rats (so in the source), ref Barraud de Lagerie et al., 2004
[4] = cited from earlier work
P-gp [5] = conditions: ref Hugnet et al., 1996; Mealey et al., 2001, 2003, 2008; Sartor et al., 2004; cited from earlier work
[6] = ref Kurdziel et al., 2003; cited from earlier work

Sequence of P-gp (Rattus norvegicus, UniProt Q6PSM0) (Q6PSM0 1-1272): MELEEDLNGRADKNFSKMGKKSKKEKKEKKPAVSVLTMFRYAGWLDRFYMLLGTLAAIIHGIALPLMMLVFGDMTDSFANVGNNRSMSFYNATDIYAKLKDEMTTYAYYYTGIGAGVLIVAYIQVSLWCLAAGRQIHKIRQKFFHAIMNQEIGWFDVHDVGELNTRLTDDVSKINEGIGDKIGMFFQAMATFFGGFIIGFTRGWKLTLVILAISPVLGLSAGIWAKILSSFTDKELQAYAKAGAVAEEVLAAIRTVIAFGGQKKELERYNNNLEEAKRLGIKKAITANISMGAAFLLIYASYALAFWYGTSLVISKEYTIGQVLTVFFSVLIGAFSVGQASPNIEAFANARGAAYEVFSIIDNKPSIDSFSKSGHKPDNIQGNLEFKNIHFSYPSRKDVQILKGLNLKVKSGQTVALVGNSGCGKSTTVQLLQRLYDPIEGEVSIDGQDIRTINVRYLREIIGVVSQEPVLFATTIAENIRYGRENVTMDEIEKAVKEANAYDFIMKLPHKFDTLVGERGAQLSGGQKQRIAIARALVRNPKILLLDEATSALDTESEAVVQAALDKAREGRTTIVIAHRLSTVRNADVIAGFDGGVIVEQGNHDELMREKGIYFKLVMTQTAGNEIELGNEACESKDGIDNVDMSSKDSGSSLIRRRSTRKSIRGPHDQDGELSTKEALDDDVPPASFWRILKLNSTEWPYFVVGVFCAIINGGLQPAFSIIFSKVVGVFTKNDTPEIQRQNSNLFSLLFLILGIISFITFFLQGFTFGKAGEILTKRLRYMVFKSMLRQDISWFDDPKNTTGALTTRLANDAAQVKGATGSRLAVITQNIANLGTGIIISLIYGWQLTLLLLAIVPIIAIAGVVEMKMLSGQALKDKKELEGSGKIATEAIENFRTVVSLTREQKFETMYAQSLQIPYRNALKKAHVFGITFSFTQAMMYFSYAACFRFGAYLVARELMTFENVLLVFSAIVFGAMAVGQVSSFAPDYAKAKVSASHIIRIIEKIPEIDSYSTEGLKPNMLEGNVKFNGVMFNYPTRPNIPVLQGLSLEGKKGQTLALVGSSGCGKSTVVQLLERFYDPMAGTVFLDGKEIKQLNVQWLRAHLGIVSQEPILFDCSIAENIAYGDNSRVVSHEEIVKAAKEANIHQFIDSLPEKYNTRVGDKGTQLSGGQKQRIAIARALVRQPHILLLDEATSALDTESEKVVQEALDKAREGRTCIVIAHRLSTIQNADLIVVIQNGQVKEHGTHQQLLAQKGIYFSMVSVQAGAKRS

In the case of `CC(C)(C)NC(=O)[C@@H]1C[C@@H]2CCCC[C@@H]2CN1C[C@@H](O)[C@H](Cc1ccccc1)NC(=O)[C@H](CC(N)=O)NC(=O)c1ccc2ccccc2n1` [Saquinavir], the “Fold change in brain uptake ratio in inhibitor-treated vs. control mice” value (P-gp [1]; Zosuquidar (50 mg/kg, IV), Conc., ref Choo et al., 2000) is listed as “∼ 3.0, Conc. fold” and the EC50 (P-gp [2]) is listed as 6.5 µM.
In the case of `Cc1ccc(NC(=O)c2ccc(CN3CCN(C)CC3)cc2)cc1Nc1nccc(-c2cccnc2)n1` [Imatinib], the “Enhancement of brain uptake by valspodar or zosuquidar” value (P-gp [1]; ref Bihorel et al., 2007) is listed as “up to 3 fold” and the “Increase in brain distribution with elacridar in WT mice” value (P-gp [1]; ref Breedveld et al., 2005, Oostendorp et al., 2009) is listed as “up to 5 fold”.
In the case of `CC(C)(C)c1ccc(C(O)CCCN2CCC(C(O)(c3ccccc3)c3ccccc3)CC2)cc1` (centres unmarked) [terfenadine], the “Increase in brain uptake with cyclosporine in rats” value (P-gp [3]; ref Obradovic et al., 2007) is given as “several-fold”.
In the case of `O[C@H](c1cc(C(F)(F)F)nc2c(C(F)(F)F)cccc12)[C@@H]1CCCCN1` [(-) mefloquine, mefloquine], the “Increase in brain-to-plasma AUC ratio with elacridar” value (P-gp [3]) is given as 1.5 times.
In the case of `O[C@@H](c1cc(C(F)(F)F)nc2c(C(F)(F)F)cccc12)[C@H]1CCCCN1` [(+) mefloquine, mefloquine], the “Increase in brain-to-plasma AUC ratio with elacridar” value (P-gp [3]) is given as 2.5 times.
In the case of `CNC(=O)C(CCN1CCC(O)(c2ccc(Cl)cc2)CC1)(c1ccccc1)c1ccccc1` [N-desmethyl-loperamide], the “Increase of plasma AUC with ritonavir (200 mg twice daily, 5.5 days)” value ([4]; ref Mukwaya et al., 2005) is given as 1.4 fold.
For `CCCN(CCC)S(=O)(=O)c1ccc(C(=O)O)cc1` [probenecid], the “Probenecid CSF concentrations at 2500 mg/m^2” value ([4]; ref Bode et al., 1980) is given as 2.4 to 3.4 µg/mL.
In the case of `CCC(C)n1ncn(-c2ccc(N3CCN(c4ccc(OCC5COC(Cn6cncn6)(c6ccc(Cl)cc6Cl)O5)cc4)CC3)cc2)c1=O` (centres unmarked) [Itraconazole], the EC50 (P-gp [2]) is listed as 0.5 µM.
In the case of `CC[C@H]1OC(=O)[C@H](C)[C@@H](O[C@H]2C[C@@](C)(OC)[C@@H](O)[C@H](C)O2)[C@H](C)[C@@H](O[C@@H]2O[C@H](C)C[C@H](N(C)C)[C@H]2O)[C@](C)(O)C[C@@H](C)C(=O)[C@H](C)[C@@H](O)[C@]1(C)O` [Erythromycin], the EC50 (P-gp [2]) is given as 38 µM.
For `CC[C@]1(O)C[C@H]2CN(CCc3c([nH]c4ccccc34)[C@@](C(=O)OC)(c3cc4c(cc3OC)N(C=O)[C@H]3[C@@](O)(C(=O)OC)[C@H](OC(C)=O)[C@]5(CC)C=CCN6CC[C@]43[C@@H]65)C2)C1` [Vincristine], the “Effect of exposure in Collie and other dog breeds that naturally lack P-gp” value (P-gp [5]) is listed as “neurological symptoms”.
For `CC(=O)O[C@@]12CO[C@@H]1C[C@H](O)[C@@]1(C)C(=O)[C@H](O)C3=C(C)[C@@H](OC(=O)[C@H](O)[C@@H](NC(=O)OC(C)(C)C)c4ccccc4)C[C@@](O)([C@@H](OC(=O)c4ccccc4)[C@H]21)C3(C)C` [Docetaxel], the “Increase in brain uptake by single oral doses of valspodar and elacridar” value (P-gp [1]; ref Kemper et al., 2004c) is listed as “up to 2.6 fold”.
In the case of `CC(=O)O[C@H]1C(=O)[C@@]2(C)[C@H]([C@H](OC(=O)c3ccccc3)[C@]3(O)C[C@H](OC(=O)[C@H](O)[C@@H](NC(=O)c4ccccc4)c4ccccc4)C(C)=C1C3(C)C)[C@]1(OC(C)=O)CO[C@@H]1C[C@@H]2O` [Paclitaxel], the “Increase in brain uptake with elacridar” value (P-gp [1]; elacridar plasma concentrations <900 ng/ml, ref Kemper et al., 2003) is given as 5 fold.
For `CC(C)(C)NC(=O)[C@@H]1CN(Cc2cccnc2)CCN1C[C@@H](O)C[C@@H](Cc1ccccc1)C(=O)N[C@H]1c2ccccc2C[C@H]1O` [Indinavir], the EC50 (P-gp [2]) is given as over 50 µM.
In the case of [^18F]-Paclitaxel, the “CNS distribution in untreated subjects (brain / metabolite-corrected plasma AUC ratio)” value [6] is listed as 0.05 (brain / metabolite-corrected plasma AUC ratio).
